{"source": "patent US20070032502A1", "about": "“Quinazoline derivatives useful in cancer treatment” (Schering Corporation, priority 2005, published 2007)", "key": {"MB468": {"test_system": "MB468", "test": "Proliferation assay (Calcein AM viability, 72 hours)", "assay_type": "cell-based", "conditions": "MB468; read-out: PROLIFERATION ASSAY EC50 MB468", "procedure": "This assay measures the growth suppression effects of small molecules in cells with mutant p53 vs. p53 null background. It uses Calcein AM to measure cellular viability. Cells (p53 null and mutant) are harvested and plated at 5000 cells per well in a 96-well tissue culture plate. The volume of cells in growth media is 100 µl. Serial dilutions (2× concentration) of compounds are then made and transferred to the plate of cells. The volume of compounds in the growth media is 100 μL. This dilution of compound with cells gives a 1× final dilution of compound (200 μL total volume). Plates are then incubated at 37° C. for 72 hours. Media is then poured off and Calcein AM is added at the appropriate concentration and the plates are incubated in the dark for 15 minutes and read for fluorescence. […] Compounds having EC50 values of 6 uM or higher have been assigned the letter “D”. These letter rating has been used throughout in the data tables above."}, "[1]": {"target": "GST-p53 DNA binding domain (aa 92-aa 312) (Homo sapiens, UniProt P04637)", "sequence (P04637 92-312)": "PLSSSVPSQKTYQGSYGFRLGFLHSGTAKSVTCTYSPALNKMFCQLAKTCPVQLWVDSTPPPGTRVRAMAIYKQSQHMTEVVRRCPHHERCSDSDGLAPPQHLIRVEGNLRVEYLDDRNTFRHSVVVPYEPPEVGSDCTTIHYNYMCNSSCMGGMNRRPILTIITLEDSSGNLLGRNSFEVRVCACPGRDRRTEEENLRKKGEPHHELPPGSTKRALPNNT", "test": "Scintillation Proximity Assay (SPA), displacement of 3H STANDARD COMPOUND", "conditions": "1 h", "source_text": "Most of the oncogenic mutants of the tumor suppressor protein p53 lack sequence specific DNA binding activity at physiological temperature due to conformational changes in the DNA binding domain. Small molecules and peptide which bind to the p53 DNA binding domain stabilize the conformation and restore DNA binding activity to mutant p53 protein (Science 286, 2507-2510, 1999; PNAS, 99, 937-942, 2002). Using ^3H STANDARD COMPOUND (which is ^3H of the compound #1 of the present invention; the * Carbon atom is the one labeled; structure shown below), [drawing 2234] a radio labeled small molecule which binds to p53, and the GST-p53 DNA binding domain (aa 92-aa 312), we have developed a quantitative screening assay. The assay is based on Scintillation Proximity Assay (SPA) technology, developed by Amersham Biosciences to measure molecular interactions. Briefly, the complex of GST-p53, ^3H STANDARD and Glutathione-SPA beads (Amersham Biosciences) are incubated with mixing for 1 hr at room temperature in the presence of the novel compounds to be screened. The signal is read on Microbeta. The compounds which have the ability to displace ^3H STANDARD COMPOUND are selected. Such molecules will stabilize the conformation and restore DNA binding activity to mutant p53 protein.\nThe above assay was used to determine the ability of the compounds of this invention to restore DNA binding activity to mutant p53 and the results for selected compounds have been given above in various tables.\nA letter rating corresponding to % Residual total binding (T) @ 2 ug/mL of drug (i.e., compound of the present invention) from this assay have been assigned as follows: Compounds having % Residual T values of from 0% to less than 20% have been assigned the letter “A”. Compounds having % Residual T values of from 20% to less than 40% have been assigned the letter “B”. Compounds having % Residual T values of from 40% to less than 80% have been assigned the letter “C”. Compounds having % Residual T values of 80% or higher have been assigned the letter “D”. The exact % Residual T values @ 2 ug/mL for some illustrative compounds are shown below: […]"}, "[2]": {"conditions": "read-out: SPA ASSAY (% residual T @ 2 ug/mL of drug)"}, "[3]": {"conditions": "2 ug/mL of drug, lower is better, read-out: % Residual T @ 2 ug/mL rating according to scintillation proximity assay (SPA)"}}, "note": "Read-outs that look alike come from different tables or passages of the source."}
{"smiles": "Clc1ccc(C(c2ccc(Cl)cc2)N2CCN(Cc3nc(N4CCCCCC4)c4ccccc4n3)CC2)cc1", "note": "[Example 30-5]", "values": [{"measurement": "EC50", "setting": "MB468", "value": "2 to 4", "unit": "µM"}]}
{"smiles": "CN(Cc1ccccc1)c1nc(CN2CCN(C(c3ccc(Cl)cc3)c3ccc(Cl)cc3)CC2)nc2ccccc12", "note": "[Example 30-11]", "values": [{"measurement": "EC50", "setting": "MB468", "value": "> 6", "unit": "µM"}]}
{"smiles": "Clc1ccc(C(c2ccc(Cl)cc2)N2CCN(Cc3nc(N4CCc5ccccc5C4)c4ccccc4n3)CC2)cc1", "note": "[Example 30-12]", "values": [{"measurement": "EC50", "setting": "MB468", "value": "> 6", "unit": "µM"}]}
{"smiles": "CN(CCc1ccccn1)c1nc(CN2CCN(C(c3ccc(Cl)cc3)c3ccc(Cl)cc3)CC2)nc2ccccc12", "note": "[Example 30-14]", "values": [{"measurement": "remaining activity at 2 µg/mL", "setting": "[1]; [2]", "value": "> 80", "unit": "%"}, {"measurement": "EC50", "setting": "MB468", "value": "4 to 6", "unit": "µM"}]}
{"smiles": "Clc1ccc(C(c2ccc(Cl)cc2)N2CCN(Cc3nc(N4CCN(c5ccccc5)CC4)c4ccccc4n3)CC2)cc1", "note": "[Example 30-15]", "values": [{"measurement": "EC50", "setting": "MB468", "value": "4 to 6", "unit": "µM"}]}
{"smiles": "Clc1ccc(C(c2ccc(Cl)cc2)N2CCN(Cc3nc(N4CCN(c5ncccn5)CC4)c4ccccc4n3)CC2)cc1", "note": "[Example 30-17]", "values": [{"measurement": "EC50", "setting": "MB468", "value": "> 6", "unit": "µM"}]}
{"smiles": "CN(CCC1C=Nc2ccccc21)c1nc(CN2CCN(C(c3ccc(Cl)cc3)c3ccc(Cl)cc3)CC2)nc2ccccc12", "note": "(centres unmarked) [Example 30-18]", "values": [{"measurement": "EC50", "setting": "MB468", "value": "2 to 4", "unit": "µM"}]}
{"smiles": "Clc1ccc(C(c2ccc(Cl)cc2)N2CCN(Cc3nc(N4CCC(Cc5ccccc5)CC4)c4ccccc4n3)CC2)cc1", "note": "[Example 30-19]", "values": [{"measurement": "EC50", "setting": "MB468", "value": "4 to 6", "unit": "µM"}]}
{"smiles": "Clc1ccc(C(c2ccc(Cl)cc2)N2CCN(Cc3nc(N4CCN(Cc5ccccc5)CC4)c4ccccc4n3)CC2)cc1", "note": "[Example 30-20]", "values": [{"measurement": "EC50", "setting": "MB468", "value": "2 to 4", "unit": "µM"}]}
{"smiles": "O=C(C1CCCO1)N1CCN(c2nc(CN3CCN(C(c4ccc(Cl)cc4)c4ccc(Cl)cc4)CC3)nc3ccccc23)CC1", "note": "(centres unmarked) [Example 30-22]", "values": [{"measurement": "remaining activity at 2 µg/mL", "setting": "[1]; [2]", "value": "> 80", "unit": "%"}, {"measurement": "EC50", "setting": "MB468", "value": "> 6", "unit": "µM"}]}
{"smiles": "CN(C)CC[C@H](Nc1nc(CN2CCN(C(c3ccc(Cl)cc3)c3ccc(Cl)cc3)CC2)nc2ccccc12)C(N)=O", "note": "[Example 43, 2(S)-(−)-2-(2-{4-[BIS-(4-CHLOROPHENYL)METHYL]PIPERAZIN-1-YLMETHYL}QUINAZOLIN-4-YLAMINO)-4-DIMETHYLAMINOBUTYRAMIDE]", "values": [{"measurement": "remaining activity at 2 µg/mL", "setting": "[1]; [3]", "value": "40 to 80", "unit": "%"}]}
{"smiles": "CCOC(=O)[C@H](CCN(C)C)Nc1nc(CN2CCN(C(c3ccc(Cl)cc3)c3ccc(Cl)cc3)CC2)nc2ccccc12", "note": "[Example 44, 2(S)-(+)-2-(2-{4-[bis-(4-chlorophenyl)methyl]piperazin-1-ylmethyl}quinazoline-4-ylamino)-4-dimethylaminobutyric acid ethyl ester]", "values": [{"measurement": "remaining activity at 2 µg/mL", "setting": "[1]; [3]", "value": "40 to 80", "unit": "%"}]}
{"smiles": "CC(C)COC(=O)[C@H](CCCN(C)C)Nc1nc(CN2CCN(C(c3ccc(Cl)cc3)c3ccc(Cl)cc3)CC2)nc2ccccc12", "note": "[Example 45, 2(S)-(−)-2-(2-{4-[BIS-(4-CHLOROPHENYL)METHYL]PIPERAZIN-1-YLMETHYL}QUINAZOLIN-4-YLAMINO)-5-DIMETHYLAMINOPENTANOIC ACID ISOBUTYL ESTER]", "values": [{"measurement": "remaining activity at 2 µg/mL", "setting": "[1]; [3]", "value": "> 80", "unit": "%"}]}
{"smiles": "CN(C)CCC[C@H](Nc1nc(CN2CCN(C(c3ccc(Cl)cc3)c3ccc(Cl)cc3)CC2)nc2ccccc12)C(N)=O", "note": "[Example 46, 2(S)-(+)-2-(2-{4-[BIS-(4-CHLOROPHENYL)METHYL]PIPERAZIN-1-YLMETHYL}QUINAZOLIN-4-YLAMINO)-5-DIMETHYLAMINOPENTANAMIDE]", "values": [{"measurement": "remaining activity at 2 µg/mL", "setting": "[1]; [3]", "value": "> 80", "unit": "%"}]}
{"smiles": "CN(C)CCCC[C@H](Nc1nc(CN2CCN(C(c3ccc(Cl)cc3)c3ccc(Cl)cc3)CC2)nc2ccccc12)C(N)=O", "note": "[Example 47, 2(S)-(+)-2-(2-{4-[BIS-(4-CHLOROPHENYL)METHYL]PIPERAZIN-1-YLMETHYL}QUINAZOLIN-4-YLAMINO)-6-DIMETHYLAMINOHEXANAMIDE]", "values": [{"measurement": "remaining activity at 2 µg/mL", "setting": "[1]; [3]", "value": "40 to 80", "unit": "%"}]}
